The values below come from patent US11420966B2 (ACLARIS THERAPEUTICS, INC., priority 2019, dated 2022).

pIC50: −log10 of the molar value.

One assay addresses JAK2 (Homo sapiens (Human), UniProt O60674). The assay can be described thus: JAK2 enzyme activity assay (Thermo Fisher SelectScreen, Z-lyte). Format: biochemical. Particulars: read-out: JAK2 Inhibition IC50. An outline of the steps:
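Z-lyte FRET kinase assay: 0.12-0.5 ng JAK2 with […] Tyr 06 peptide in 50 mM HEPES pH 7.5, 0.01% BRIJ-35, 10 mM MgCl2, 1 mM EGTA, 1 h reaction before development reagent. 11-point dose-response from […] to 0.34 nM, 2% DMSO; IC50 from 4-parameter fit of emission ratio.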

Assay [1] concerns IFNγ stimulated STAT1 phosphorylation on Tyr701 (JAK1/2). Kind of assay: JAK1/2 cellular target modulation: IFNγ stimulated phospho-STAT1 in PBMC. Type of assay: cell-based. Particulars: human PBMC, IFNγ 10 ng/ml; read-out: Infγ-STAT1 IC50. A digest of the protocol:
(§1)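 Thawed human PBMC (200,000/well, RPMI/10% FBS) were preincubated with compound for 1 h at 37 °C, added from 10× stocks in 1% DMSO. Stimulation and read-out: IL-2 25 ng/ml, 5 min, pSTAT5 by MSD; IL-12 1.7 ng/ml, 25 min, pSTAT4 by MSD; IFNγ 10 ng/ml, 10 min, pSTAT1 by sandwich ELISA.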

In assay [2] the test system is IL-2 stimulated STAT5 phosphorylation on Tyr694 (JAK1/3). Kind of assay: JAK1/3 cellular target modulation: IL-2 stimulated phospho-STAT5 in PBMC. The following applies: human PBMC, IL-2 25 ng/ml; read-out: IL2-STAT5 IC50. Type of assay: cell-based. A digest of the protocol: as §1
In assay [3] the test system is IL-12 stimulated STAT4 phosphorylation on Tyr693 (JAK2/TYK2). The assay can be described thus: JAK2/TYK2 cellular target modulation: IL-12 stimulated phospho-STAT4 in PBMC. Particulars: human PBMC, IL-12 1.7 ng/ml; read-out: IL12-STAT4 IC50. Type of assay: cell-based. An excerpt: JAK Cellular Target Modulation Assays
Target modulation was based upon the ability of a compound to inhibit JAK isoform specific phosphorylation of selected substrates. IL-2 stimulated STAT5 phosphorylation on Tyr694 was used to assess JAK1/3 compound selectivity. GM-CSF stimulated STAT5 phosphorylation on Tyr694 was used to assess JAK2 compound selectivity. IFNγ stimulated STAT1 phosphorylation on Tyr701 was used to assess JAK1/2 compound selectivity. IL-12 stimulated STAT4 phosphorylation on Tyr693 was used to assess JAK2/TYK2 compound selectivity. For all four assays, human PBMC from frozen stocks were thawed, pelleted, resuspended in complete media (90% RPMI, 10% heat inactivated FBS, 10 mM HEPES, 47 μM 2-ME, pen/strep) and placed in wells of a 96 well V-bottom plate at 200,000 per well in 120 μl complete media. Compounds were added as 15 μl per well of 10× working stock solutions in complete media with 1% DMSO (or medium with 1% DMSO for controls) and placed on a plate shaker in a 37° C. incubator with 5% CO2 for 1 hour with gentle shaking (setting of 3). Stimulation used the addition of soluble cytokines. For the JAK1/3 phospho-STAT5 assay, 15 μl of 10× working stock recombinant human IL-2 was added to a final concentration of 25 ng/ml. For the JAK2 phospho-STAT5 assay, 15 μl of 10× working stock recombinant human GM-CSF was added to a final concentration of 5 ng/ml. For the JAK1/2 phospho-STAT1 assay, 15 μl of 10× working stock of recombinant human IFNγ was added to a final concentration of 10 ng/ml. For the JAK2/TYK2 phospho-STAT4 assay, 15 μl of 10× working stock of recombinant human IL-12 was added to a final concentration of 1.7 ng/ml. Plates were then placed back on the plate shaker in the incubator for an additional 5, 5, 10, and 25 minutes respectively upon which the plates were removed from the incubator, sealed with a plate sealer and the cells pelleted at 400×g for 5 minutes. After pelleting, the media was removed by aspiration and the cells were lysed in assay specific cell lysis buffer. The levels of phospho-STATS were determined using a Phospho (Tyr694) STAT5a,b Whole Cell Lysate kit from Meso Scale Discovery. Levels of phospho-STAT1 were determined using a CST-PathScan Phospho-STAT1 (Tyr701) Sandwich ELISA kit. Levels of phospho-STAT4 were determined using a Phospho-STAT4 (Tyr693) Whole Cell Lysate kit from Meso Scale Discovery.

In another assay the target is JAK1 (Homo sapiens (Human), UniProt P23458). The assay can be described thus: JAK1 enzyme activity assay (Thermo Fisher SelectScreen, Z-lyte). Type of assay: biochemical. Particulars: read-out: JAK1 Inhibition IC50. An outline of the steps: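 Z-lyte assay with 21.2-91.5 ng JAK and […] Tyr 06 in 50 mM HEPES pH 7.0, 10 mM MgCl2, 1 mM EGTA, 0.01% BRIJ-35; 1 h kinase reaction, then development reagent. 11-point dose-response from […] to 0.34 nM, 2% DMSO vehicle; IC50 from 4-parameter logistic fit of emission ratio.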

For the next assay, the target named is Tyk-2 (Homo sapiens (Human), UniProt P29597). Kind of assay: Tyk-2 enzyme activity assay (Thermo Fisher SelectScreen, Z-lyte). Particulars: read-out: Tyk-2 Inhibition IC50. Format: biochemical. A digest of the protocol: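 Z-lyte FRET assay: 3.75–15 ng TYK2 with […] Tyr 03 peptide in HEPES pH 7.0, MgCl2, EGTA, BRIJ-35; 1 h reaction, then development reagent. 11-point dose-response, 2% DMSO; IC50 via 4-parameter fit of emission ratio, background without enzyme.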

For the next assay, the target named is JAK3 (a.a. 781-1124) (Homo sapiens (Human), UniProt P52333). The assay can be described thus: JAK3 enzyme activity assay (SRCtide phosphorylation, Caliper). Type of assay: biochemical. The following applies: 1 uM ATP; read-out: JAK3 Inhibition IC50.
Sequence of JAK3 (a.a. 781-1124) (P52333 781-1124): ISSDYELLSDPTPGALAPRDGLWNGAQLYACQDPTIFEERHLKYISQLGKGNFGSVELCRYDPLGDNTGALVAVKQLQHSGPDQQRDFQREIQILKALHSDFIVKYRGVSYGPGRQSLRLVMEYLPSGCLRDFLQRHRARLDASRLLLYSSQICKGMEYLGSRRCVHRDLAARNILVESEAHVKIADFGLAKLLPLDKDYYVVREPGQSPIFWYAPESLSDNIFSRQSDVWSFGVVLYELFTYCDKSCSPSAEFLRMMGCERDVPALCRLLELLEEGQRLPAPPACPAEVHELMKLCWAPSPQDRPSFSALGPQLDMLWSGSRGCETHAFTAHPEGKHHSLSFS

Sequence of JAK1 (P23458 whole entry): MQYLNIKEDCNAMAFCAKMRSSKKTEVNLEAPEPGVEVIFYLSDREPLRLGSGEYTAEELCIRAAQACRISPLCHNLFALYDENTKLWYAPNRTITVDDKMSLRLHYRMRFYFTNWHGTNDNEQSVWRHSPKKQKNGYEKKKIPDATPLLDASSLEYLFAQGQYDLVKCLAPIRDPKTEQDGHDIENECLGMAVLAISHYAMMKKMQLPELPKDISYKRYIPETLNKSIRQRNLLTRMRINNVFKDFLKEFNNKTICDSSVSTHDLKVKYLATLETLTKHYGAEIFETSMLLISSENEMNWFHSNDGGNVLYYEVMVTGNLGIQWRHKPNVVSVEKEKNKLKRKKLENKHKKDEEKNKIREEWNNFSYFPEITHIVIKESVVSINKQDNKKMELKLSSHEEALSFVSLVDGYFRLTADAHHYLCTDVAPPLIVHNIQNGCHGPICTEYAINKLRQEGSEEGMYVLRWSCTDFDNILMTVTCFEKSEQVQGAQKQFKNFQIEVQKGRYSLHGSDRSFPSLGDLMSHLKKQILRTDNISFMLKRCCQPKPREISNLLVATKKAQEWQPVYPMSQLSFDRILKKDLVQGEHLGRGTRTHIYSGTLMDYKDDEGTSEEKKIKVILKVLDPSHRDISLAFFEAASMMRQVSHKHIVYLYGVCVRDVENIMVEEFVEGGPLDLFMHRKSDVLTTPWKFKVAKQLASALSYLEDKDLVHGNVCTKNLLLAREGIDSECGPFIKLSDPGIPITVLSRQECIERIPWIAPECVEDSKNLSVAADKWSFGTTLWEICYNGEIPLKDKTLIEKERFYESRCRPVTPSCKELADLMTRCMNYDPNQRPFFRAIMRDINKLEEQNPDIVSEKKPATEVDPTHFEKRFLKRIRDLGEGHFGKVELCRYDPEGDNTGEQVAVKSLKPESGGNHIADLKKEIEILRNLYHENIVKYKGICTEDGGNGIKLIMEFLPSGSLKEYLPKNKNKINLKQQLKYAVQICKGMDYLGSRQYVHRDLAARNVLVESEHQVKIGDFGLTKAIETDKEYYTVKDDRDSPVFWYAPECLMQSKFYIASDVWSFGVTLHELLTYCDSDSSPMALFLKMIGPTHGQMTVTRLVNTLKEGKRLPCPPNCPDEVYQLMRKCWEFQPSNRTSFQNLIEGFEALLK
Sequence of Tyk-2 (P29597 whole entry): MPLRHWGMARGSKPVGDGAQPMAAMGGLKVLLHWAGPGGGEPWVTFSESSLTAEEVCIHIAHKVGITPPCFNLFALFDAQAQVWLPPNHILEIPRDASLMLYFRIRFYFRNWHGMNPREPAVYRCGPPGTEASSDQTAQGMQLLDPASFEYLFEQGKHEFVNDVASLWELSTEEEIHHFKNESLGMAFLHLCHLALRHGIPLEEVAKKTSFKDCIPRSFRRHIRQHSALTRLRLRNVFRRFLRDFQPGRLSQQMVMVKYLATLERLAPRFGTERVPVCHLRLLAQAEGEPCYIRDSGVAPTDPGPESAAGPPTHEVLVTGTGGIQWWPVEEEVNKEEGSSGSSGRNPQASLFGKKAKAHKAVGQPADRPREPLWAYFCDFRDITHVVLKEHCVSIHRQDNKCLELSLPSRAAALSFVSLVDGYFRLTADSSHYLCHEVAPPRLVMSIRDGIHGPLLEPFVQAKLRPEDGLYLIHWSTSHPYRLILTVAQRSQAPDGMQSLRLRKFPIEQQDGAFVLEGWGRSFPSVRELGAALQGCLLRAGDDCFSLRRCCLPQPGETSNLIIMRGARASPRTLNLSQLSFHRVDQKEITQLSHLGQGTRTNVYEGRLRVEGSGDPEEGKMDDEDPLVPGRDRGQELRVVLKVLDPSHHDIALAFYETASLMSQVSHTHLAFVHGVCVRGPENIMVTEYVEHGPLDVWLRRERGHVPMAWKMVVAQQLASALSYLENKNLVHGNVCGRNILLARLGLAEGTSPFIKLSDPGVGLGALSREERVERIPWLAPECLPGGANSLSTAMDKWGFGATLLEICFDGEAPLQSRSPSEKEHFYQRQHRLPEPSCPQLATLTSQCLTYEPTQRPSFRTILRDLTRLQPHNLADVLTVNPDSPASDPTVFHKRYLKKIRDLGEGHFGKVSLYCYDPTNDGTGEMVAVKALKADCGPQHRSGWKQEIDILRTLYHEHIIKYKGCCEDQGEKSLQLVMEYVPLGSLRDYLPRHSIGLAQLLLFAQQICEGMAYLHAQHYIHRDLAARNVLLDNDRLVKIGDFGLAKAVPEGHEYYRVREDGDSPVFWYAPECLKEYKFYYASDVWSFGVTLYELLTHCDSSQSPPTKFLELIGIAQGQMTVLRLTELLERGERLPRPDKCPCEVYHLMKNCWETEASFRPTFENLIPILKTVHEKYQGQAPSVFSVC
Sequence of JAK2 (O60674 whole entry): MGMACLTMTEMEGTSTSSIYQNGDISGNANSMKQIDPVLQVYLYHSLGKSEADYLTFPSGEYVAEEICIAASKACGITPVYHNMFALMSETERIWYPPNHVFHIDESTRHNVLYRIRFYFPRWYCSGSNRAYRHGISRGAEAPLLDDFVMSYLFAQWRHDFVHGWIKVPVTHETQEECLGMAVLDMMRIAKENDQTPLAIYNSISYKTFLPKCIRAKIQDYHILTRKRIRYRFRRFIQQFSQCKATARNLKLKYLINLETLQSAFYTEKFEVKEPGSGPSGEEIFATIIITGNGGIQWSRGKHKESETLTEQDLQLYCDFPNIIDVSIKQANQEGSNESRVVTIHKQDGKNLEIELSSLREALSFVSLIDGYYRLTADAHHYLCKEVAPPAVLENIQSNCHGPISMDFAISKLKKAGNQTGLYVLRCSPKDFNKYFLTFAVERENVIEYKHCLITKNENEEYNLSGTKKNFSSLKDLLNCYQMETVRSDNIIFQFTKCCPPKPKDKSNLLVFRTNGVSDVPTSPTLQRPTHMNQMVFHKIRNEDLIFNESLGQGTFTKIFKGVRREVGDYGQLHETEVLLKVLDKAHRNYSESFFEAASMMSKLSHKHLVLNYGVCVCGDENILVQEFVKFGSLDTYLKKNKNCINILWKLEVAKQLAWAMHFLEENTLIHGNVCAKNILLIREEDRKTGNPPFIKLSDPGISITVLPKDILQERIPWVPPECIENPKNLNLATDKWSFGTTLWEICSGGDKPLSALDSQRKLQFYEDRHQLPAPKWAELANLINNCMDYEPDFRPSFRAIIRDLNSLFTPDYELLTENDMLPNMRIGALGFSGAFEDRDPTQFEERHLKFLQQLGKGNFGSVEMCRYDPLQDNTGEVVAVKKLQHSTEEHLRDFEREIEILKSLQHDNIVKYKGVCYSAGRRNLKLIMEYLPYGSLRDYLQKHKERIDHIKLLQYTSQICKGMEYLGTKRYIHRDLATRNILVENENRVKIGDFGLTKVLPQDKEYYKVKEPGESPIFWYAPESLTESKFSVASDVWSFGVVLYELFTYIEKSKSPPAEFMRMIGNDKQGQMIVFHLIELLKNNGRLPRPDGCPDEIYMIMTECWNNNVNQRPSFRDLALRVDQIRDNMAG

A word on the pIC50: it is the negative decadic logarithm of the IC50, by convention in mol/L. For the compound `N#CCC(=O)N1CCC[C@@H](Nc2c(-c3nnco3)cnc3[nH]ccc23)C1` [Example 7, (R)-3-(3-((5-(1,3,4-oxadiazol-2-yl)-1H-pyrrolo[2,3-b]pyridin-4-yl)amino)piperidin-1-yl)-3-oxopropanenitrile], the negative logarithm of the IC50 (pIC50) at JAK2 was 7.00 to 8.00; in assay [1], 6.00 to 7.00; in assay [2] it was 6.00 to 7.00; in assay [3], less than 6.00; at JAK1, 7.00 to 8.00; at Tyk-2, 7.00 to 8.00. Further, on JAK3 (a.a. 781-1124), the negative-log IC50 (pIC50) is 7.00 to 8.00.

Take `Cc1ccnc(-c2cnc3[nH]ccc3c2N[C@@H]2CCCN(C(=O)CC#N)C2)c1` [Example 15, (R)-3-(3-((5-(4-methylpyridin-2-yl)-1H-pyrrolo[2,3-b]pyridin-4-yl)amino)piperidin-1-yl)-3-oxopropanenitrile]: the pIC50 at JAK2 is 7.00 to 8.00; in assay [1], 6.00 to 7.00; in assay [2], not below 7.00; in assay [3] it was less than 6.00; on JAK1 it was not below 8.00; on Tyk-2 it was 7.00 to 8.00. At JAK3 (a.a. 781-1124), the pIC50 was not below 8.00.

For `O[C@H]1CC[C@@H](Nc2c(-c3ncco3)cnc3[nH]ccc23)C1` [Example 13, (1S,3R)-3-((5-(oxazol-2-yl)-1H-pyrrolo[2,3-b]pyridin-4-yl)amino)cyclopentan-1-ol], the pIC50 on JAK2 was 7.00 to 8.00; in assay [1], less than 6.00; in assay [2], 6.00 to 7.00; in assay [3], less than 6.00; on JAK1, 7.00 to 8.00; at Tyk-2, 6.00 to 7.00. In addition, the pIC50 on JAK3 (a.a. 781-1124) was 7.00 to 8.00.

For the compound `N#CCC(=O)N1CCC[C@@H](Nc2c(-c3ccsn3)cnc3[nH]ccc23)C1` [Example 41, (R)-3-(3-((5-(isothiazol-3-yl)-1H-pyrrolo[2,3-b]pyridin-4-yl)amino)piperidin-1-yl)-3-oxopropanenitrile], the pIC50 at JAK2 is not below 8.00; in assay [1], 6.00 to 7.00; in assay [2], not below 7.00; in assay [3], 6.00 to 7.00; on JAK1, not below 8.00; at Tyk-2, not below 8.00. Moreover, on JAK3 (a.a. 781-1124), the pIC50 was not below 8.00.

On to `CS(=O)(=O)c1cnc(-c2cnc3[nH]ccc3c2N[C@@H]2CCCN(CCC#N)C2)s1` [Example 47, (R)-3-(3-((5-(5-(methylsulfonyl)thiazol-2-yl)-1H-pyrrolo[2,3-b]pyridin-4-yl)amino)piperidin-1-yl)propanenitrile], for which the pIC50 at JAK2 was 7.00 to 8.00; in assay [1], less than 6.00; in assay [2], 6.00 to 7.00; in assay [3], less than 6.00; at JAK1, 7.00 to 8.00; at Tyk-2, 7.00 to 8.00. Besides, the pIC50 at JAK3 (a.a. 781-1124) was 7.00 to 8.00.

As for `C[C@H]1C[C@@H](Nc2c(-c3ncco3)cnc3[nH]ccc23)CN(C(=O)CC#N)C1` (single isomer, unassigned) [Example 10], the negative logarithm of the IC50 (pIC50) was not below 8.00 at JAK2; not below 7.00 in assay [1]; not below 7.00 in assay [2]; not below 7.00 in assay [3]; not below 8.00 at JAK1; not below 8.00 on Tyk-2. Further, the pIC50 on JAK3 (a.a. 781-1124) is not below 8.00.

`N#CCC(=O)N1CCC[C@@H](Nc2c(-c3cccc(N)n3)cnc3[nH]ccc23)C1` [Example 44, (R)-3-(3-((5-(6-aminopyridin-2-yl)-1H-pyrrolo[2,3-b]pyridin-4-yl)amino)piperidin-1-yl)-3-oxopropanenitrile]: the pIC50 at JAK2 was 7.00 to 8.00; in assay [1] it was 6.00 to 7.00; in assay [2], 6.00 to 7.00; in assay [3], less than 6.00; on JAK1 it was not below 8.00; at Tyk-2 it was 7.00 to 8.00. On JAK3 (a.a. 781-1124), the pIC50 was 7.00 to 8.00.

As for `N#CCC(=O)N1CCC[C@@H](Nc2c(-c3ccn(C(F)F)n3)cnc3[nH]ccc23)C1` [Example 2, (R)-3-(3-((5-(1-(difluoromethyl)-1H-pyrazol-3-yl)-1H-pyrrolo[2,3-b]pyridin-4-yl)amino)piperidin-1-yl)-3-oxopropanenitrile], the pIC50 on JAK2 was 7.00 to 8.00; in assay [1], 6.00 to 7.00; in assay [2] it was not below 7.00; in assay [3], 6.00 to 7.00; at JAK1, not below 8.00; on Tyk-2, 7.00 to 8.00. The pIC50 at JAK3 (a.a. 781-1124) is not below 8.00.

In the case of `CSc1nccc(-c2cnc3[nH]ccc3c2N[C@@H]2CCCN(C(=O)CC#N)C2)n1` [Example 49, (R)-3-(3-((5-(2-(methylthio)pyrimidin-4-yl)-1H-pyrrolo[2,3-b]pyridin-4-yl)amino)piperidin-1-yl)-3-oxopropanenitrile], the pIC50 was 7.00 to 8.00 at JAK2; not below 7.00 in assay [1]; not below 7.00 in assay [2]; less than 6.00 in assay [3]; not below 8.00 at JAK1; 7.00 to 8.00 at Tyk-2. The negative logarithm of the IC50 (pIC50) at JAK3 (a.a. 781-1124) is not below 8.00.

Regarding `Cc1noc(-c2cnc3[nH]ccc3c2N[C@@H]2CCCN(C(=O)CC#N)C2)n1` [Example 6, (R)-3-(3-((5-(3-methyl-1,2,4-oxadiazol-5-yl)-1H-pyrrolo[2,3-b]pyridin-4-yl)amino)piperidin-1-yl)-3-oxopropanenitrile], the pIC50 on JAK2 was 7.00 to 8.00; in assay [1] it was 6.00 to 7.00; in assay [2], not below 7.00; in assay [3] it was less than 6.00; on JAK1, not below 8.00; at Tyk-2, 7.00 to 8.00. Also, the negative-log IC50 (pIC50) at JAK3 (a.a. 781-1124) is not below 8.00.

Take `CN(C)C(=O)c1coc(-c2cnc3[nH]ccc3c2N[C@@H]2CCCN(C(=O)CC#N)C2)n1` [Example 34, (R)-2-(4-((1-(2-cyanoacetyl)piperidin-3-yl)amino)-1H-pyrrolo[2,3-b]pyridin-5-yl)-N,N-dimethyl-oxazole-4-carboxamide]: the pIC50 on JAK2 was 7.00 to 8.00; in assay [1] it was 6.00 to 7.00; in assay [2], 6.00 to 7.00; in assay [3] it was less than 6.00; on JAK1, not below 8.00; at Tyk-2, 7.00 to 8.00. At JAK3 (a.a. 781-1124), the pIC50 was not below 8.00.

As to `CS(=O)(=O)c1cnc(-c2cnc3[nH]ccc3c2N[C@@H]2CCCN(C(=O)CC#N)C2)o1` [Example 48, (R)-3-(3-((5-(5-(methylsulfonyl)oxazol-2-yl)-1H-pyrrolo[2,3-b]pyridin-4-yl)amino)piperidin-1-yl)-3-oxopropanenitrile], the pIC50 on JAK2 is 7.00 to 8.00; in assay [1], 6.00 to 7.00; in assay [2], not below 7.00; in assay [3], less than 6.00; on JAK1, not below 8.00; on Tyk-2, 7.00 to 8.00. Besides, the negative logarithm of the IC50 (pIC50) on JAK3 (a.a. 781-1124) is 7.00 to 8.00.
